# Data: patent US20060179492A1, “Method of inhibiting neural transmission mediated by serotonin-2a and enhancing sensorimotor gating” (The Regents of the University of California, priority 2002, published 2006)
# Where a name gives a salt, the structure may show the parent alone.
# How the values were obtained:
# [1] = tested on: PPI deficits produced by the serotonin-2A agonist DOI; test: DOI-induced disruption of prepulse inhibition (PPI) of the startle reflex; assay type: in vivo, Sprague Dawley rats; settings: for startle magnitude (main effect, ANOVA): NT69L versus DOI experiment
# Protocol: (§1) Animals: Ninety-six male Sprague Dawley rats (250-300 grams at testing) were obtained from Harlan Laboratories, San Diego. In the experiments of Example 1, all groups contained an n of 8. Animals were housed in groups of two or three in clear plastic chambers in a climate controlled room on a 12:12 hour light/dark cycle (lights on 7:00 a.m.-7:00 p.m.). The rats were handled prior to testing. All testing occurred during the light phase of the rats' circadian illumination schedule and they were allowed free access to food and water for the extent of the study, except during the actual testing. Behavioral testing was performed between 9:00 am and 4:30 pm beginning 7 days after arrival. All studies described in this publication were carried out in accordance with the “Principles of laboratory and animal care” as described in the Guide for the Care and Use of Laboratory Animals as adopted and promulgated by the National Institutes of Health.
# (§2) Drugs: PD149163 (LysΨ(CH2NH)-Lys-Pro-Trp-tLeu-Leu-OEt) was generously made available by the NIMH Chemical Synthesis and Drug Supply Program, and SR1 International, Menlo Park, Calif. NT69L (N-methyl-Arg-Lys-Pro-L-neo-Trp-tLeu-Leu) was developed at Mayo Clinic, Jacksonville, Fla., as described in Tyler-McMahon et al. 2000. DOI and cirazoline hydrochloride were obtained from Sigma Chemicals, St. Louis, Mo. All drugs used were dissolved in saline.
# (§3) Startle Testing and Test Sessions. Startle testing was performed in four identical startle chambers obtained from San Diego Instruments (San Diego, Calif.). Each chamber consisted of a clear non-restrictive Plexiglass cylinder resting on a Plexiglass platform inside a ventilated and illuminated enclosure housed in a sound-attenuated room. A continuous background noise of 65 dB, as well as the various acoustic stimuli, was produced within each chamber by a high-frequency loudspeaker (Radio Shack Supertweeter, San Diego, Calif.). The whole-body startle response of each animal produced vibrations of the Plexiglass cylinder, which were transduced into analog signals by a piezoelectric unit, mounted underneath the Plexiglass platform (Mansbach et al., 1988). These analog signals were then digitized and stored by an interface unit connected to a microcomputer. Startle amplitude was defined as the degree of motion detected by the piezoelectric unit.
# (§4) The animals were subjected to a 5-minute acclimation to the 65 dB background noise, which continued throughout the session. The acclimation was followed by a 15 minute PPI test session. Five trial types were presented during the test session: 40 msec 120 dB startle pulses (PULSE-ALONE), startle pulses preceded 100 msecs by 20 msec prepulses of either 4, 8, or 12 dB above background, and NO-[…] trials. All trial types were presented in pseudo-random order separated by an average of 15 seconds. In addition, four PULSE-ALONE trials that were not used in the calculation of PPI values were presented at the beginning and at the end of the test session, to habituate animals to the pulse and in order to provide a measure of habituation across the session.
# NT69L versus DOI. Thirty-two drug-naïve rats were administered subcutaneous (SC) injections of the following doses of NT69L, 0 (saline), 0.1, 1, or 2 mg/kg. Thirty minutes later, they were injected SC with either saline or DOI (0.5 mg/kg), a dose known to reliably disrupt PPI. Animals were tested in startle chambers thirty minutes later and PPI measured as described. After one week, animals were tested a second time during which treatment and testing procedures were the same except that rats that previously received DOI received saline and vice versa. The dose of NT69L was kept constant on both test days.
# Data and Statistical Analysis. A startle response was recorded for all stimuli presentations. […]
# [2] = tested on: PPI deficits produced by DOI; settings: reported by Geyer et al.; cited from earlier work
# [3] = tested on: PPI deficits produced by the alpha-1 adrenergic agonist cirazoline; test: Cirazoline-induced disruption of prepulse inhibition (PPI) of the startle reflex; assay type: in vivo, Sprague Dawley rats; settings: for PPI of saline/cirazoline rats versus saline/saline rats: cirazoline 0.7 mg/kg SC
# Protocol: as §1, §2, §3, §4
# PD149163 versus cirazoline. Thirty-two drug-naïve rats were administered SC injections of the following doses of PD149163, 0 (saline), 0.01, 0.1, or 1 mg/kg. Thirty minutes later, they were injected SC with either saline or cirazoline (0.7 mg/kg), a dose known to reliably disrupt PPI. Animals were tested in startle chambers thirty minutes later and PPI measured as described. […]
# BB rats = test: Catalepsy bar test; assay type: in vivo, Brattleboro rats; settings: 30 min after SC: haloperidol 1 mg/kg (P<0.001), clozapine 10 or 15 mg/kg, PD149163 1 or 2 mg/kg; versus saline
# Protocol: Doses selected were those that produced the greatest effect in the PPI studies. Thirty minutes after SC injections animals were tested in the using a method described by several other authors (Stanley and Glick, 1976; Costall et al., 1978; Wadenberg, 1996). This method involved placing the forepaws of each rat in an extended position over a pencil that was suspended horizontally 9 cm above the lab bench. The time spent in this position before the animal moved or corrected itself was considered a measure of catalepsy.
# PPI = settings: sedating psychotropic drug without antipsychotic properties; cited from earlier work
# Brown Norway (BN) rats = test: PPI in Brown Norway rats with low PPI; assay type: in vivo; settings: acute administration
# serotonin-2A receptor = serotonin-2A receptor (Homo sapiens, UniProt P28223); settings: cited from earlier work
# serotonin-2A receptor, sequence (P28223 whole entry): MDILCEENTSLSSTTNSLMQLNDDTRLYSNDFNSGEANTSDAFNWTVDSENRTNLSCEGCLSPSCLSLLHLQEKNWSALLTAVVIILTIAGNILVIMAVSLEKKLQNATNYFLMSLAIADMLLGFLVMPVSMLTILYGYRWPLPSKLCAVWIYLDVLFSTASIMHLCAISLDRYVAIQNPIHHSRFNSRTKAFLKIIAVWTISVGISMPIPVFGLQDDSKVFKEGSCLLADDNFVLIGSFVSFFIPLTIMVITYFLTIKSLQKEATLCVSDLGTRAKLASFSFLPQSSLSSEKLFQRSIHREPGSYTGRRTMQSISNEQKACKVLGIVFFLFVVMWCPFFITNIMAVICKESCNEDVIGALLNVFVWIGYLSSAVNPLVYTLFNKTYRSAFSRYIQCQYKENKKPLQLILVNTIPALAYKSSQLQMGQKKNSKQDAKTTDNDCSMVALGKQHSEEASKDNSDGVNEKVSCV
# [4] = tested on: alpha-1 adrenergic receptors; settings: cited from earlier work
# monoamine receptors = settings: cited from earlier work
compound,measurement,setting,value
"COc1cc(CC(C)N)c(OC)cc1I.Cl (centres unmarked) [DOI, 1-(2,5-dimethoxy-4-iodophenyl)-2-aminopropane hydrochloride]",PPI of saline/DOI rats versus saline/saline rats,"[1]; DOI 0.5 mg/kg SC, P<0.001",significantly decreased PPI
same,"startle magnitude (main effect, ANOVA)",[1],no significant main effect
COc1cccc([C@H](O)C2CCN(CCc3ccc(F)cc3)CC2)c1OC [MDL100907],effect on PPI deficits produced by DOI,[2],antagonize PPI deficits produced by DOI
CN1CC[C@@H]2CN3CCc4cccc(c43)[C@@H]2C1.O=C(O)/C=C/C(=O)O [SDZ SER-082],effect on PPI deficits produced by DOI,[2],do not block DOI-induced PPI deficits
"c1ccc(C2CC2)c(OCC2=NCCN2)c1 [cirazoline, cirazoline hydrochloride]",PPI of saline/cirazoline rats versus saline/saline rats,"[3]; NT69L experiment, P<0.05",significantly decreased PPI
same,PPI of saline/cirazoline rats versus saline/saline rats,"[3]; PD149163 experiment, P<0.01",significantly decreased PPI
CN1CCN(C2=Nc3cc(Cl)ccc3Nc3ccccc32)CC1 [clozapine],catalepsy: time rats remained on the bar,BB rats,no dose of clozapine or PD149163 significantly increased
CN1C(=O)CN=C(c2ccccc2)c2cc(Cl)ccc21 [diazepam],effect on PPI,PPI,decrease rather than facilitate PPI
O=C(CCCN1CCC(O)(c2ccc(Cl)cc2)CC1)c1ccc(F)cc1 [haloperidol],PPI in BN rats,Brown Norway (BN) rats,did not enhance PPI
same,catalepsy: time rats remained on the bar,BB rats,significantly increased the time rats remained on the bar
same,effect on PPI deficits produced by DOI,[2],do not block DOI-induced PPI deficits
O=C(c1ccc(F)cc1)C1CCN(CCn2c(=O)[nH]c3ccccc3c2=O)CC1 [ketanserin],effect on PPI deficits produced by DOI,[2],antagonize PPI deficits produced by DOI
CC(C)NCC(O)COc1cccc2ccccc12 (centres unmarked) [propanolol],effect on PPI deficits produced by DOI,[2],do not block DOI-induced PPI deficits
CCN1CCC[C@H]1CNC(=O)c1c(O)c(Cl)cc(Cl)c1OC [raclopride],effect on PPI deficits produced by DOI,[2],do not block DOI-induced PPI deficits
Cc1nc2n(c(=O)c1CCN1CCC(c3noc4cc(F)ccc34)CC1)CCCC2 [risperidone],effect on PPI deficits produced by DOI,[2],antagonize PPI deficits produced by DOI
N-methyl-Arg-Lys-Pro-L-neo-Trp-tLeu-Leu [NT69L],PPI versus rats that received DOI/saline,"[1]; NT69L 0.1 mg/kg SC + DOI 0.5 mg/kg SC, P<0.001",significantly greater than PPI exhibited by rats that received DOI/saline
same,PPI versus rats that received DOI/saline,"[1]; NT69L 1 mg/kg SC + DOI 0.5 mg/kg SC, P<0.05",significantly greater than PPI exhibited by rats that received DOI/saline
same,PPI versus rats that received DOI/saline,"[1]; NT69L 2 mg/kg SC + DOI 0.5 mg/kg SC, P<0.01",significantly greater than PPI exhibited by rats that received DOI/saline
same,"startle magnitude (main effect, ANOVA)",[1],no significant main effect
same,effect on DOI-induced PPI deficits,"[1]; all three active doses of NT69L (0.1, 1, 2 mg/kg SC) 30 min before DOI 0.5 mg/kg SC, tested 30 min later",blocked the PPI deficits produced by DOI
same,effect on cirazoline-induced PPI deficits,[3]; NT69L 1 mg/kg SC 30 min before cirazoline 0.7 mg/kg SC,blocked the PPI deficits produced by cirazoline
same,startle versus rats that received cirazoline and saline,"[3]; cirazoline + NT69L 1 mg/kg SC, P<0.05",significantly lower
same,"startle magnitude (main effect, ANOVA)","[3]; cirazoline experiments, PD149163 P<0.05, NT69L P<0.01",significant main effect
same,binding to serotonin-2A receptors,serotonin-2A receptor,neither PD149163 or NT69L bind
same,binding to alpha-1 adrenergic receptors,[4],neither PD149163 or NT69L bind
same,affinity for monoamine receptors,monoamine receptors,minimal affinity
